From PMC10458470 (Molecules, 2023)
Where two headings read alike, the source gives them in different places.

Columns and labels:
Assay in all cases: UV-Vis absorption titration (Kb) and fluorescence quenching (KSV […] ^-1)
Assay type in all cases: binding
[1] = biological target: T1, human serum albumin (HSA) (Homo sapiens, UniProt P02768); conditions: read-out: UV-Vis absorption titration (Kb) and fluorescence quenching (KSV 4 × 10^6 M^-1) (converted)
T1 construct: gene ALB

[2] = biological target: T1, human serum albumin (HSA); conditions: read-out: UV-Vis absorption titration (Kb) and fluorescence quenching (KSV 4.6 × 10^6 M^-1) (converted)
[3] = biological target: T1, human serum albumin (HSA); conditions: read-out: UV-Vis absorption titration (Kb) and fluorescence quenching (KSV 5.6 × 10^6 M^-1) (converted)

T1 sequence (P02768 25-609): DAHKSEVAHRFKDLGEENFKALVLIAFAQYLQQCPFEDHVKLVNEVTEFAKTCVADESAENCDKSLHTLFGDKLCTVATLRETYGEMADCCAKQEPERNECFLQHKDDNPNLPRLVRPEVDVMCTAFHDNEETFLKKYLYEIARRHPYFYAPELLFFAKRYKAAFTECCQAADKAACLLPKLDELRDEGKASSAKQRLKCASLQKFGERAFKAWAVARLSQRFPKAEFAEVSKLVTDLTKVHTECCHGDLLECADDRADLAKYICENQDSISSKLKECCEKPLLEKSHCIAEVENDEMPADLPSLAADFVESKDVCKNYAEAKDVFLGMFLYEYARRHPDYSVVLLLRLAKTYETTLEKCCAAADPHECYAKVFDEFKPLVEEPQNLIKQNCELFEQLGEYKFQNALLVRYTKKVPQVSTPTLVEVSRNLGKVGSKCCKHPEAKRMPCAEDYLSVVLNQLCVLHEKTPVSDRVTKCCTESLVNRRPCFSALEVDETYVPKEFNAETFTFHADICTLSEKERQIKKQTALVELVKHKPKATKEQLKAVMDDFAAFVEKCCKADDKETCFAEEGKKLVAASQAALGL

## [Zn(NTZ)2Cl2] [NTZ-Zn(II)]
[1]
  Kd: 13.4 µM

## [Ni(NTZ)2Cl2] [NTZ-Ni(II)]
[2]
  Kd: 20.9 µM

## [Cu(NTZ)2Cl2] [NTZ-Cu(II)]
[3]
  Kd: 5.35 µM
